Measurements published in patent US20050019357A1, “(2S,3R,4S)-4-hydroxyisoleucine-containing cosmetic compositions and methods of application” (Caster, priority 2003, published 2005).

What was measured:
[1] = tested on: men with alopecia (proportion of hair in the telogen phase greater than 15%); experiment: Anti-hair loss study by videotrichogram on volunteers with alopecia; assay type: in vivo, human; settings: used as active ingredient in an anti-hair loss composition already containing Lentinus edodes extract, procyanidolic oligomers and Cananga odorata essential oil
Source text: The anti-ageing effect on the epidermis was confirmed in vivo in a study relating to the anti-hair loss properties of (2S,3R,4S)-4-hydroxyisoleucine carried out on volunteer subjects affected by alopecia, having a proportion of hair in the telogen phase greater than […] 15%. […] This anti-hair loss composition is described in application FR 2 776 184 of which the applicant is proprietor. It contains an aqueous extract of the mushroom Lentinus edodes rich in 1,3-β-D-1,6-β-D-glucan, procyanidolic oligomers extracted from grapeseed cuticle, and essential oil extracted from the flowers of Cananga odorata. […]
This study was carried out on a sample of 25 volunteers for each composition tested. The only people included in the study were men from 20 to 50 years old (average age of each group 37 years) with alopecia, that is to say having a proportion of hair in the telogen phase, determined by videotrichogram, greater than 15%.
The apparatus used is a videomicroscope equipped with a ×25 lens, which is mobile and optical fibre-based, linked to a computer system for image acquisition. The lens is placed directly over the zone to be studied, the image is digitized, recorded and analysed with the aid of a specific software (COUNTHAIR®) developed by the company DERMSCAN which makes it possible to count the hair strands and to measure their length. […]

JL1-R1 receptor = experiment: cDNA-macroarrays confirmed by quantitative RT-PCR on messenger RNAs of epidermal cells: JL1-R1 receptor expression; assay type: cell-based
TNS & CRAB-2 receptors = experiment: cDNA-macroarrays confirmed by quantitative RT-PCR on messenger RNAs of epidermal cells: TNS & CRAB-2 receptor expression; assay type: cell-based
[2] = tested on: Cellular Retinoic Acid Binding Protein (CRAB-P-2); experiment: cDNA-macroarrays confirmed by quantitative RT-PCR on messenger RNAs of epidermal cells: CRAB-P-2 expression; assay type: cell-based
[3] = tested on: Bullous Pemphigoid Antigen 1 (BPAG-1); experiment: cDNA-macroarrays confirmed by quantitative RT-PCR on messenger RNAs of epidermal cells: BPAG-1 expression; assay type: cell-based

C[C@@H]([C@H](C)O)[C@H](N)C(=O)O [(2S,3R,4S)-4-hydroxyisoleucine]
anti-hair loss properties [1]: particularly effective
expression of the JL1-R1 receptor (JL1-R1 receptor): significant overexpression
expression of the TNS & CRAB-2 receptors (TNS & CRAB-2 receptors): decrease in the expression
expression of Cellular Retinoic Acid Binding Protein (CRAB-P-2) [2]: significant underexpression
expression of Bullous Pemphigoid Antigen 1 (BPAG-1) [3]: significant overexpression
